Key:
[1] = target: Human immunodeficiency virus type 1 integrase (Human immunodeficiency virus 1, UniProt Q7ZJM1); experiment: Inhibition of HIV-1 integrase after 1 hr by strand transfer activity assay
[2] = system: Human immunodeficiency virus 1; experiment: Antiviral activity against HIV-1 infected in human TZM-bl cells after 40 to 48 hrs by beta-galactosidase assay; format: functional, organism-based; conditions: Human immunodeficiency virus 1, TZM-bl

Chain of Human immunodeficiency virus type 1 integrase (Q7ZJM1 whole entry): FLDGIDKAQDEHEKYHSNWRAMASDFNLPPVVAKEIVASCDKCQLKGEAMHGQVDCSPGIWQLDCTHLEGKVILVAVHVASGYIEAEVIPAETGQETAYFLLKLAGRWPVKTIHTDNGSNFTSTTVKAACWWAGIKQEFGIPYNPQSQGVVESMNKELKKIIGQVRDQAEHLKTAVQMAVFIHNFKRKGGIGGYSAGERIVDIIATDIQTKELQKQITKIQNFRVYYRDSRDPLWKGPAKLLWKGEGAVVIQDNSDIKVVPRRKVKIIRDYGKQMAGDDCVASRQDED

Row | Compound | IC50 [1] [µM] | EC50 [2] [µM]
1 | COc1c(C(=O)N2CCN(CCCNC(=O)c3cc(O)c(O)c(O)c3)CC2)nc(Cc2ccccc2)n(C)c1=O | 0.9 | 1.13
2 | COc1c(C(=O)N2CCN(CCCNC(=O)c3cc(O)c(O)c(O)c3)CC2)nc(Cc2ccc(Cl)cc2)n(C)c1=O | 2.4 | 4.27
3 | COc1c(C(=O)N2CCN(CCCNC(=O)c3cc(O)c(O)c(O)c3)CC2)nc(Cc2ccc(F)cc2)n(C)c1=O | 18.9 | 4.39
4 | COc1c(C(=O)N2CCN(CCCNC(=O)c3cc(O)c(O)c(O)c3)CC2)nc(Cc2ccc(C)cc2)n(C)c1=O | 3.5 | 2.76
5 | COc1c(C(=O)N2CCN(CCCNC(=O)c3cc(O)c(O)c(O)c3)CC2)nc(Cc2ccc(Cl)c(Cl)c2)n(C)c1=O | 22.4 | –
6 | COc1c(C(=O)N2CCN(CCNC(=O)c3cc(O)c(O)c(O)c3)CC2)nc(Cc2ccccc2)n(C)c1=O | 18.6 | –
7 | COc1c(C(=O)N2CCN(CCNC(=O)c3cc(O)c(O)c(O)c3)CC2)nc(Cc2ccc(F)cc2)n(C)c1=O | 2.5 | –
8 | COc1c(C(=O)N2CCN(CCNC(=O)c3cc(O)c(O)c(O)c3)CC2)nc(Cc2ccc(O)cc2)n(C)c1=O | 0.7 | –
9 | COc1c(C(=O)N2CCN(CCCNC(=O)c3ccc(O)c(O)c3)CC2)nc(Cc2ccccc2)n(C)c1=O | > 100 | –
10 | COc1c(C(=O)N2CCN(CCCNC(=O)c3ccc(O)c(O)c3)CC2)nc(Cc2ccc(F)cc2)n(C)c1=O | > 100 | –
11 | COc1c(C(=O)N2CCN(CCCNC(=O)c3ccc(O)c(O)c3)CC2)nc(Cc2ccc(O)cc2)n(C)c1=O | > 100 | –
